Assay results reported in US12048761B2, “Methods and pharmaceutical compositions for the treatment of retinal capillary non-perfusion” (INSERM (INSTITUT NATIONAL DE LA SANTÉ ET DE LA RECHERCHE …, priority 2015, dated 2024).
Entries after “also recorded” stand apart in the source; their conditions may differ.

Assays:
[1] = tested on: ROCK; conditions: cited from earlier work
[2] = tested on: retinal capillary network; assay: Quantitative assessment of the retinal microangiopathy: lectin-labelled capillary surface on flat-mounted retina; type: in vivo, rat; conditions: GK rats, n=4 Fasudil and n=5 vehicle, p<0.05
Method: For intravitreous injections, diabetic rats were anesthetized with an intraperitoneal injection of pentobarbital (40 mg/kg Nembutal, Abbot, Saint-Remy sur Avre, France) and pupils were dilated with a topically applied drop of 5% tropicamide (Ciba Vision, Toulouse, France), and locally anesthetized with a drop of 1% tetracaine (Ciba Vision). Three consecutive injections, of Fasudil at a concentration of 20 µM or vehicle were performed, at 48 hours interval under a surgical microscope, using a 30-gauge needle (Microfine: Becton Dickinson, Meylan, France as described previously). Animals were sacrificed 48 hours following the administration of 3 intra-vitreous injections of 20 μM of Fasudil, each injection was 2 days apart. To quantify the area of large and small blood vessels on flat mounted retina, an ImageJ macro was created in Fiji. Briefly, the local thickness function available with the Fiji plugin for ImageJ software was used to create a map of the blood vessels, from which diameter of the local structures could be evaluated. This map was thresholded to define two binary masks corresponding to the vessels of large diameter (local thickness>threshold) and the vessels of small diameter (local thickness<threshold). The area of those masks was then measured and expressed in terms of the surface area occupied by the small vessels.

[3] = tested on: ROCK; assay: ROCK Activity Immunoblot Kit: phosphorylation of recombinant MYPT1 by RPE/choroid samples of treated GK rats; type: in vivo, rat; conditions: GK diabetic rats, 3 intravitreous injections of 20 μM, vs vehicle
Method: We used a ROCK Activity Immunoblot Kit (Cell Biolabs, San Diego, CA, USA) that utilizes recombinant MYPT1 as a ROCK substrate. ROCK inactivates myosin phosphatase through a specific phosphorylation of myosin phosphatase target subunit 1 (MYPT1) at Thr696, which results in an increase in the phosphorylated content of the 20-kDa myosin light chain. (MLC20) After incubating the substrate (recombinant MYPT1) with RPE/choroid samples, the phosphorylated MYPT1 was detected by western blot analysis using an anti-phospho-MYPT1 (Thr696). In brief, RPE/choroid protein samples were diluted in 1× Kinase buffer. 25 μL (75 μg of proteins) was added in microcentrifuge tubes and the initiation of kinase reaction was performed by adding 50 μL of 1× Kinase/ATP/Substrate Solution. The microcentrifuge tubes were then incubated at 30° C. for 30-60 minutes with gentle agitation. Then the kinase reaction was stopped by adding 25 μL of 4× reducing SDS-PAGE sample buffer. […] Inhibition of ROCK activity was evaluated by western blotting and quantified.

[4] = tested on: p-MLC; assay: Western blotting of p-MLC protein level in RPE; type: in vivo, rat; conditions: GK diabetic rats, 3 intravitreous injections of 20 μM, vs vehicle
Method: (§1) For intravitreous injections, diabetic rats were anesthetized with an intraperitoneal injection of pentobarbital (40 mg/kg Nembutal, Abbot, Saint-Remy sur Avre, France) and pupils were dilated with a topically applied drop of 5% tropicamide (Ciba Vision, Toulouse, France), and locally anesthetized with a drop of 1% tetracaine (Ciba Vision). Three consecutive injections, of Fasudil at a concentration of 20 µM or vehicle were performed, at 48 hours interval under a surgical microscope, using a 30-gauge needle (Microfine: Becton Dickinson, Meylan, France as described previously). […] Protein concentration was determined using a (Pierce BCA protein assay kit Thermo Scientific Rockford USA) (20-40 μg) were subjected to SDS-PAGE on Nupage 4-12% Bis-Tris gel electrophoresis, and electroblotted onto nitrocellulose membranes (Optitran BA-S 83 GE Healthcare Life Science Whatman). […] Then, membranes were incubated with the corresponding peroxidase-conjugated F(ab)2 fragment (Santa cruz Biotechnology Inc, Santa Cruz, CA, USA (dilution 1:5000) secondary antibodies. Immunoreactive bands were detected with the ECL Western blotting Detection Reagents Kit (Thermo Scientific Rockford USA). The relative abundance of individual proteins identified was quantified by scanning densitometry. The list of antibodies used for western-blots are provided in Table 2.

[5] = tested on: RPE cells; assay: Quantitative analysis of RPE cell layer morphology on RPE flat-mounts; type: in vivo, rat; conditions: Fasudil vs vehicle
Method: For intravitreous injections, diabetic rats were anesthetized with an intraperitoneal injection of pentobarbital (40 mg/kg Nembutal, Abbot, Saint-Remy sur Avre, France) and pupils were dilated with a topically applied drop of 5% tropicamide (Ciba Vision, Toulouse, France), and locally anesthetized with a drop of 1% tetracaine (Ciba Vision). Three consecutive injections, of Fasudil at a concentration of 20 µM or vehicle were performed, at 48 hours interval under a surgical microscope, using a 30-gauge needle (Microfine: Becton Dickinson, Meylan, France as described previously). Animals were sacrificed 48 hours following the administration of 3 intra-vitreous injections of 20 μM of Fasudil, each injection was 2 days apart. To analyse RPE flat-mounts and in order to assess the cell morphology. an ImageJ [32] macro tool was created in Fiji. Briefly, after a first image processing by FFT band pass filtering, images were converted into binary format and masked and then processed to obtain a skeleton image (isolated segments and loops were removed). This image was inverted and the cells segmented and labelled with the “particle analysis” tool in ImageJ, the Regions of Interest (ROI) were delimited using ROI Manager tool. The number of vertices for each cell was measured following detection of triple points (points were three branches are joined together) with the appropriate binary “hit or miss” transformation. For this transformation, the ImageJ plugin “morphology” was used. By removing those points from the skeleton image, the number of individual edges was counted as well as their length. The number of vertices was then verified and manually corrected for errors. Images with more than 5% automatic alignment errors were eliminated from analysis. Following this several morphological parameters were then measured for each cell e.g. area, perimeter, circularity, number of neighbours/vertices/edges of a cell etc. […]

[6] = tested on: VEGF; assay: VEGF western blot in neural retina and VEGF immunostaining on retinal flatmounts; type: in vivo, rat; conditions: GK rats, Fasudil vs vehicle, n=8/group, western blot (VEGF-164, neural retina)
Method: as §1

[7] = tested on: ROCK1/P-MLC; assay: Immunolocalization of ROCK1 and P-MLC on RPE cell flatmounts; type: in vivo, rat; conditions: GK diabetic rats, 3 intravitreous injections of 20 μM
Method: (§3) For intravitreous injections, diabetic rats were anesthetized with an intraperitoneal injection of pentobarbital (40 mg/kg Nembutal, Abbot, Saint-Remy sur Avre, France) and pupils were dilated with a topically applied drop of 5% tropicamide (Ciba Vision, Toulouse, France), and locally anesthetized with a drop of 1% tetracaine (Ciba Vision). Three consecutive injections, of Fasudil at a concentration of 20 M or vehicle were performed, at 48 hours interval under a surgical microscope, using a 30-gauge needle (Microfine: Becton Dickinson, Meylan, France as described previously [29-31]). Animals were sacrificed 48 hours following the administration of 3 intra-vitreous injections of 20 μM of Fasudil, each injection was 2 days apart.
For flatmounts, after enucleation, ocular globes were fixed in 4% paraformaldehyde (PFA) for 15 min at room temperature and sectioned at the limbus; anterior segments were discarded. Neural retinas and RPE/choroids were fixed separately for additional 15 min in acetone at −20° C. Specimens were then incubated overnight at 4° C. with primary antibodies diluted in PBS supplemented with 10% foetal calf serum (FCS) and 0.1% Triton X-100. Immunohistochemistry was repeated at least 7 times on 7 different animals for each group.

[8] = tested on: retinal vessels; assay: In vivo imaging of retinal vessels using confocal angiography; parameters: species or system rat; conditions: GK rats, intravitreal fasudil, p<0.05
Method: (§2) For intravitreous injections, diabetic rats were anesthetized with an intraperitoneal injection of pentobarbital (40 mg/kg Nembutal, Abbot, Saint-Remy sur Avre, France) and pupils were dilated with a topically applied drop of 5% tropicamide (Ciba Vision, Toulouse, France), and locally anesthetized with a drop of 1% tetracaine (Ciba Vision). Three consecutive injections, of Fasudil at a concentration of 20 µM or vehicle were performed, at 48 hours interval under a surgical microscope, using a 30-gauge needle (Microfine: Becton Dickinson, Meylan, France as described previously). Animals were sacrificed 48 hours following the administration of 3 intra-vitreous injections of 20 μM of Fasudil, each injection was 2 days apart.

[9] = tested on: outer retinal barrier (RPE); assay: Blood-retinal barrier breakdown using intravenous injection of 150 KDa FITC-dextran; type: in vivo, rat
Method: as §2, with “apart. To assess blood retinal barrier breakdown, 200 μl of 150 KDa FITC-dextran at 50 mg/ml in PBS (Sigma) was injected intravenously in the tail of rats treated by Fasudil or vehicle (n=5), 2 hours prior killing. Leakage of FITC-dextran was evaluated by measuring fluorescence within the retina using imageJ software as previously described by others. Cryosections (10 μm) of Fasudil and vehicles injected rats retina were randomly imaged (10 images at 40× magnification per animal) and analysed.” for “apart.”

[10] = tested on: ROCK-1; assay: Western blotting of ROCK1 protein level in RPE; type: in vivo, rat; conditions: GK diabetic rats, 3 intravitreous injections of 20 μM, vs vehicle injected eyes, n=6
Method: as §3
RPE/choroid and neural retina were homogenized in a lysis buffer (50 mM Mops, 50 mM Trisbase, 0.1%, SDS 1 mM EDTA PH 7.7) containing a protease inhibitor cocktail (Roche, France). Protein concentration was determined using a (Pierce BCA protein assay kit Thermo Scientific Rockford USA) (20-40 μg) were subjected to SDS-PAGE on Nupage 4-12% Bis-Tris gel electrophoresis, and electroblotted onto nitrocellulose membranes (Optitran BA-S 83 GE Healthcare Life Science Whatman). Membranes were incubated with primary antibodies.

Structure (SMILES) | affinity to ROCK relative to Fasudil [1] | capillary density (% of surface coverage by small vessels) [2] | phosphorylated MYTP1 in the RPE (ROCK-1 activity) [3] | phosphorylated MLC in the RPE [4] | frequency of normal size RPE cells ([5]; GK retina, p<0.001) | frequency of small RPE cells (<200 μm2) ([5]; GK retina, p<0.001) | distribution of RPE cell area ([5]; WS (non-diabetic Wistar) retina, ANOVA p=0.17) | VEGF levels in retina [6] | localization of ROCK1/P-MLC in RPE cells [7] | vasodilation of retinal vessels (vascular diameter before and after treatment) [8] | RPE barrier on histological sections ([9]; GK eyes, Fasudil treated) | vessel leakage (neural retina corrected total fluorescence) ([9]; GK eyes, Fasudil vs vehicle, n=5-6, p<0.01) | passage of 150 KDa FITC-dextran across the RPE barrier ([9]; GK rats, 2 hours after intravenous FITC-dextran, qualitative on cryosections) | total ROCK-1 in the RPE [10]
O=c1[nH]ccc2c(S(=O)(=O)N3CCCNCC3)cccc12 [Hydroxyfasudil] | higher affinity | – | – | – | – | – | – | – | – | – | – | – | – | –
O=S(=O)(c1cccc2cnccc12)N1CCCNCC1 [Fasudil, hexahydro-1-(5-isoquinolylsulfonyl)-1H-1,4-di-azepime] | – | significantly increased | significant reduction | significant reduction | increase frequency of normal size cells | significantly less small cells; also recorded: reduction in the frequency of small cells | no difference in distribution of cell area | significant decrease | relocation of ROCK1/P-MLC from the membrane into the cytoplasm | significant effect of fasudil on retinal vessel diameter; also recorded: significant vasodilation | intact RPE barrier | significant reduction in vessel leakage | did not cross the RPE barrier | not significantly decreased
